Experimental data: patent US8884013B2, “Polymorphs of Dasatinib, preparation methods and pharmaceutical compositions thereof” (Nan Jing Cavendish Bio-Engineering Technology Co., Ltd., priority 2010, dated 2014)

Assay: Comparative test on stability: destruction experiment, related substances by HPLC
Type: physicochemical
Method: The methods of destruction experiment of the Polymorph I and II of this invention (hereinafter referred to as ‘Polymorph I’ and ‘Polymorph II’) contrasting with the Polymorph A of Dasatinib prepared by the method in CN200580011916.6 (hereinafter referred to as ‘916.6 Polymorph A’) and results of stability are followed:
Oxidation destruction: 50 mg of sample weighted accurately was added into measuring flask of 100 mL, and 10 mL 30% H2O2 was added. After standing at room temperature for 2 hour, the mixture was diluted with mobile phase to scale and shook to be homogeneous, and determined by HPLC.
(§1) Acid destruction: 50 mg of sample weighted accurately was added into measuring flask of 100 mL, and 10 mL 1 mol/L HCl solution was added. After standing at 40° C. for 1 hour, an equal amount of 1 mol/L NaOH solution was added for neutralization. Then the mixture was diluted with mobile phase to scale and shook to be homogeneous, and determined by HPLC.
as §1, with “Alkali” for “Acid”, “NaOH” for “HCl”, “HCl” for “NaOH”
Illumination destruction: 50 mg of sample weighted accurately was added into measuring flask of 100 mL, dissolved and diluted with mobile phase to be the solution containing 0.5 mg Dasatinib per milliliter. After standing under illumination of 4000 lx for 6 hour, the mixture was determined by HPLC.
High temperature destruction: 50 mg of sample weighted accurately was added into measuring flask of 100 mL, dissolved and diluted with mobile phase to be the solution containing 0.5 mg Dasatinib per milliliter. After standing in homothermal water bath of 60° C. for 4 hour, the mixture was cooled and then determined by HPLC.
Related Substances Determination
HPLC conditions and system applicability: octadecylsilane bonded silica as the filler; 0.05 mol/L of potassium dihydrogen phosphate (adjusted to pH 2.5 by phosphoric acid, 0.2% triethylamine)-methanol (45:55) as the mobile phase; detection wavelength was 230 nm; the number of theoretical plates should be not less than 2000, calculated according to the peak of Dasatinib. The resolution of the peak of Dasatinib from the peaks of adjacent impurities should meet requirements.
Determination method: sample was dissolved in mobile phase to be the solution containing 0.5 mg per milliliter. 20 μL of such solution was injected into liquid chromatograph, and chromatogram was recorded until the sixfold retention time of major component peak. If there were impurities peaks in the chromatogram of sample solution, total impurities and any single impurity were calculated by normalization method on the basis of peak area.

Stability by comparison with Polymorph I: worse performance in stability | Impurity tR3.580 (1 mol/L acid destruction): 0.01% | Impurity tR4.106 (1 mol/L acid destruction): 0.02% | Impurity tR5.001 (1 mol/L acid destruction): 0.02% | Total impurities (1 mol/L acid destruction (HCl, 40° C., 1 hour)): 0.06% | Impurity tR4.107 (1 mol/L alkali destruction): 0.01% | Impurity tR5.007 (1 mol/L alkali destruction): 0.03% | Impurity tR5.351 (1 mol/L alkali destruction): 0.03% | Impurity tR8.943 (1 mol/L alkali destruction): 0.01% | Total impurities (1 mol/L alkali destruction (NaOH, 40° C., 1 hour)): 0.11% | Impurity tR4.135 (before destruction): 0.02% | Impurity tR5.092 (before destruction): 0.02% | Impurity tR5.523 (before destruction): 0.03% | Total impurities (before destruction): 0.07% | Impurity tR4.118 (high temperature destruction): 0.02% | Impurity tR5.081 (high temperature destruction): 0.03% | Impurity tR5.502 (high temperature destruction): 0.03% | Total impurities (high temperature destruction (60° C. water bath, 4 hour, in solution)): 0.08% | Impurity tR2.456 (illumination destruction): 0.30% | Impurity tR3.732 (illumination destruction): 0.14% | Impurity tR4.589 (illumination destruction): 0.11% | Impurity tR5.088 (illumination destruction): 0.06% | Impurity tR5.503 (illumination destruction): 0.19% | Impurity tR10.095 (illumination destruction): 0.82% | Total impurities (illumination destruction (4000 lx, 6 hour, in solution)): 1.89% | Impurity tR4.123 (oxidation destruction): 0.01% | Impurity tR4.584 (oxidation destruction): 0.02% | Impurity tR5.089 (oxidation destruction): 0.02% | Impurity tR5.504 (oxidation destruction): 0.05% | Impurity tR9.450 (oxidation destruction): 2.30% | Total impurities (oxidation destruction (30% H2O2, room temperature, 2 hour)): 2.41%
Structure (SMILES): Cc1nc(Nc2ncc(C(=O)Nc3c(C)cccc3Cl)s2)cc(N2CCN(CCO)CC2)n1 [916.6 Polymorph A, N-(2-chloro-6-methylphenyl)-2-[[6-[4-(2-hydroxyethyl)-1-piperazinyl]-2-methyl-4-pyrimidyl]amino]-5-thiazolformamide, reference compound]
